Measurements: ChEMBL document CHEMBL1128401, “Structure-activity relationships in the 8-amino-6,7,8,9-tetrahydro-3H-benz[e]indole ring system. 1. Effects of substituents in the aromatic system on serotonin and dopamine receptor subtypes” (J Med Chem, 1995)
The source made the active and inactive calls. No cut-off for these calls is given here.

Tests used:
Rattus norvegicus [1] = experiment: The compound was tested in vivo for DOPA accumulation in limbic system against reserpine-pretreated rats;I= inactive at the highest dose tested; format: functional, organism-based
Rattus norvegicus [2] = experiment: compound was tested in vivo for DOPA accumulation in corpus striatum against reserpine-pretreated rats;I= inactive at the highest dose tested; format: functional, organism-based
Rattus norvegicus [3] = experiment: The compound was tested in vivo for DOPA accumulation in hemispheres (cortex) against reserpine-pretreated rats;I= inactive at the highest dose tested; format: functional, organism-based
[4] = target: 5-hydroxytryptamine receptor 1D (Homo sapiens, UniProt P28221); experiment: Binding affinity against 5-hydroxytryptamine 1D receptor alpha expressed in CHO-K1 cells, using [3H]-5-HT as the radioligand.; format: cell-based
5-hydroxytryptamine receptor 1D, sequence (P28221 whole entry): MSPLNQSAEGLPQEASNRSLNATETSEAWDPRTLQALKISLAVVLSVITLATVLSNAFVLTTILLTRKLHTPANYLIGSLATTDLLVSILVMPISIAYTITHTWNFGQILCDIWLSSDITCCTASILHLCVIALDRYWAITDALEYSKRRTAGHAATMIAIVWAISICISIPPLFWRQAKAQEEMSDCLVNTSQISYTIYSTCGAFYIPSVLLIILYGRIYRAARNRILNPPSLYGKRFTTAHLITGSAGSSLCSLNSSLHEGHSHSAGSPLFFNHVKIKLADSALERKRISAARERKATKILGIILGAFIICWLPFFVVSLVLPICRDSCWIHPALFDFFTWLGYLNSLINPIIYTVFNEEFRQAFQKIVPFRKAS

D(3) dopamine receptor [5] = target: T1, D(3) dopamine receptor (Rattus norvegicus, UniProt P19020); experiment: Binding affinity against Dopamine receptor D3 from CHO-K1 cells, using [3H]spiperone as the radioligand.; format: cell-based; details: read-out: Ki
T1 sequence (P19020 whole entry): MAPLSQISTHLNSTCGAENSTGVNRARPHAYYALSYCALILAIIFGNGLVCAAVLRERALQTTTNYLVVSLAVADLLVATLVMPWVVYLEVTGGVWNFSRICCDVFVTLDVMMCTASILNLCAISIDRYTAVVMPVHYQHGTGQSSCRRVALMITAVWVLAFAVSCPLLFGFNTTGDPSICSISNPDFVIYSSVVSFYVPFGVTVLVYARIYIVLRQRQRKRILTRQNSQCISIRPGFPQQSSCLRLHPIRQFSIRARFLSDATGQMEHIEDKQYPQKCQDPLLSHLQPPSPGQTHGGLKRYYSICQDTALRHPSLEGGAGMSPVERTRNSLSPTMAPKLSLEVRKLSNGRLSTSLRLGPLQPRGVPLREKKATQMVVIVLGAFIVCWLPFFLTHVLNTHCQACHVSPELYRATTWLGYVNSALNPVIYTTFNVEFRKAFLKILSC

D(2) dopamine receptor [6] = target: T2, D(2) dopamine receptor (Rattus norvegicus, UniProt P61169); experiment: Binding affinity against Dopamine receptor D2 from CHO-K1 cells, using [3H]U-86,170 as the radioligand.; format: cell-based
T2 sequence (P61169 whole entry): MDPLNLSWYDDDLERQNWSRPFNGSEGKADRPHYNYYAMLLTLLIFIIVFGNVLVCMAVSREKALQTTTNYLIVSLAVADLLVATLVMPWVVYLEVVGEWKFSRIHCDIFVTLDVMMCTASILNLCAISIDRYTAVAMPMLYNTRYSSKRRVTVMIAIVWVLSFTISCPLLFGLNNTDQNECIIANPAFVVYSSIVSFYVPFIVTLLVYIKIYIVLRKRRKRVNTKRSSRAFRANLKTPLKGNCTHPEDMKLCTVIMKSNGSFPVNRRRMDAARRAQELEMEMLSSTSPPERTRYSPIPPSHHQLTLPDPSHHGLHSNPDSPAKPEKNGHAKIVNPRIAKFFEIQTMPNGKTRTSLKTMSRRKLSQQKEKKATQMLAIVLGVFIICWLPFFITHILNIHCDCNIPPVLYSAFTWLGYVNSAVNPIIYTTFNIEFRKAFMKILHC

[7] = target: 5-hydroxytryptamine receptor 1B (Homo sapiens, UniProt P28222); experiment: Binding affinity against 5-hydroxytryptamine 1D receptor beta expressed in CHO-K1 cells, using [3H]5-HT as the radioligand.; format: cell-based
5-hydroxytryptamine receptor 1B, sequence (P28222 whole entry): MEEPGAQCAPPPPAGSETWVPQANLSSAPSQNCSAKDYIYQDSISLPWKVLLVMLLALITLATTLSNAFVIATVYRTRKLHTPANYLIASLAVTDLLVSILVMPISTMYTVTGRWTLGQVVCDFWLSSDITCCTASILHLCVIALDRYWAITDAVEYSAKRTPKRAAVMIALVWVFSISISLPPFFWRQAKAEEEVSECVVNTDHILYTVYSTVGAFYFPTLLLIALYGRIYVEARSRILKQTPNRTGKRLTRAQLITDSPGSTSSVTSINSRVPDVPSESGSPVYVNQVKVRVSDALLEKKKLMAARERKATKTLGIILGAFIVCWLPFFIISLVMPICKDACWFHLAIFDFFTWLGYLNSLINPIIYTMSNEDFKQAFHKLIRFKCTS

D(3) dopamine receptor [8] = target: T1, D(3) dopamine receptor; experiment: Binding affinity against Dopamine receptor D3 expressed in CHO-K1 cells, using [3H]spiperone as the radioligand.; format: cell-based
D(2) dopamine receptor [9] = target: T2, D(2) dopamine receptor; experiment: Binding affinity against Dopamine receptor D2 expressed in CHO-K1 cells, using [3H]U-86170 as the radioligand.; format: cell-based
Rattus norvegicus [10] = experiment: The Compound was tested in vivo for DOPA accumulation in limbic system against reserpine-pretreated rats; P=significant partial reduction only at the highest dose tested (3.1).; format: functional, organism-based
[11] = target: T3, 5-hydroxytryptamine receptor 1A (Rattus norvegicus, UniProt P19327); experiment: Binding affinity against 5-hydroxytryptamine 1A receptor from CHO-K1 cells, using [3H]8-OH-DPAT as the radioligand.; format: cell-based
T3 sequence (P19327 whole entry): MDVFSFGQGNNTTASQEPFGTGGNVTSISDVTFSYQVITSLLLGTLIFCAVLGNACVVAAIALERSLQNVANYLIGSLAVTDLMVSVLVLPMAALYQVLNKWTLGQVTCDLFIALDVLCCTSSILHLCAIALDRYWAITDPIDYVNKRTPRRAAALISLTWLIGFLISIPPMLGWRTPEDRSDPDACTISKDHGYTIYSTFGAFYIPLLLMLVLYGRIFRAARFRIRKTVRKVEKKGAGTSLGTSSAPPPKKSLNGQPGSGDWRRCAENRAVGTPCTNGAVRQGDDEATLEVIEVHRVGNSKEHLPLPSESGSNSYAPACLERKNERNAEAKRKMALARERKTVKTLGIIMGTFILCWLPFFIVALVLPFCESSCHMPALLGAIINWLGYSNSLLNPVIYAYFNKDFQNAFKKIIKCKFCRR

Rattus norvegicus [12] = experiment: The Compound was tested in vivo for DOPA accumulation in hemispheres (cortex) against reserpine-pretreated rats; I=inactive at the highest dose tested (3.1).; format: functional, organism-based
Rattus norvegicus [13] = experiment: Compound was tested in vivo for DOPA accumulation in corpus striatum against reserpine-pretreated rats;I= inactive at the highest dose tested (3.1).; format: functional, organism-based
Rattus norvegicus [14] = experiment: compound was tested in vivo for DOPA accumulation in corpus striatum against reserpine-pretreated rats; format: functional
[15] = Bioavailability in rat plasma following iv/po dose; format: ADME, organism-based
[16] = tmax in hours at a iv dose of 54.0(pmol/g/h).; format: ADME, organism-based; details: in vivo
Rattus norvegicus [17] = experiment: Bioavailability in male Sprague-Dawley rats, after the po administration at a dose of 10.0(pmol/g/h); format: ADME, organism-based; details: in vivo
Rattus norvegicus [18] = experiment: Bioavailability in male Sprague-Dawley rats, after the iv administration at a dose of 54.0(pmol/g/h); format: ADME, organism-based; details: in vivo
[19] = tmax in hours at a dose of 10.0(pmol/g/h).; format: ADME
Rattus norvegicus [20] = experiment: The Compound was tested in vivo for DOPA accumulation in hemispheres (cortex) against reserpine-pretreated rats;I= inactive at the highest dose (12.5); format: functional, organism-based
Rattus norvegicus [21] = experiment: In vivo for 5-HTP accumulation in corpus striatum against reserpine-pretreated rats.; format: functional
Rattus norvegicus [22] = experiment: In vivo for 5-HTP accumulation in hemispheres (cortex) against reserpine-pretreated rats.; format: functional
Rattus norvegicus [23] = experiment: In vivo for DOPA accumulation in limbic system against reserpine-pretreated rats.; format: functional
Rattus norvegicus [24] = experiment: In vivo for DOPA accumulation in corpus striatum against reserpine-pretreated rats.; format: functional
Rattus norvegicus [25] = experiment: In vivo for 5-HTP accumulation in limbic system against reserpine-pretreated rats.; format: functional
Rattus norvegicus [26] = experiment: Compound was tested in vivo for 5-HTP accumulation in limbic system against reserpine-pretreated rats;I= inactive at the highest dose tested (12.5).; format: functional, organism-based
D(2) dopamine receptor [27] = target: T2, D(2) dopamine receptor; details: cho-k1
D(3) dopamine receptor [28] = target: T1, D(3) dopamine receptor; experiment: Compound was tested for binding affinity against Dopamine receptor D3 expressed in CHO-K1 cells, using [3H]spiperone as the radioligand; I= inactive at the highest dose tested (12.5).; format: cell-based
Rattus norvegicus [29] = species on record: Rattus norvegicus; experiment: Compound was tested for binding affinity against D3 receptor expressed in CHO-K1 cells, using [3H]spiperone as the radioligand;I= inactive (less than 50% inhibition at 1 uM).
Rattus norvegicus [30] = experiment: The Compound was tested in vivo for DOPA accumulation in limbic system against reserpine-pretreated rats;I= inactive at the highest dose tested (12.5).; format: functional, organism-based
Rattus norvegicus [31] = experiment: The Compound was tested in vivo for DOPA accumulation in limbic system against reserpine-pretreated rats; inactive at the highest dose tested (12.5).; format: functional, organism-based
Rattus norvegicus [32] = experiment: Compound was tested in vivo for DOPA accumulation in corpus striatum against reserpine-pretreated rats; I=inactive at the highest dose tested (12.5).; format: functional, organism-based
Rattus norvegicus [33] = species on record: Rattus norvegicus; experiment: Compound was tested for binding affinity against D2 receptor expressed in CHO-K1 cells, using [3H]U-86170 as the radioligand; I=inactive (less than 50% inhibition at 1 uM).
Rattus norvegicus [34] = experiment: The Compound was tested in vivo for DOPA accumulation in limbic system against reserpine-pretreated rats; P=significant partial reduction only at the highest dose tested (50).; format: functional, organism-based
Rattus norvegicus [35] = experiment: The Compound was tested in vivo for DOPA accumulation in hemispheres (cortex) against reserpine-pretreated rats; P=significant partial reduction only at the highest dose tested (50).; format: functional, organism-based
Rattus norvegicus [36] = experiment: Compound was tested in vivo for DOPA accumulation in corpus striatum against reserpine-pretreated rats;P= significant partial reduction only at the highest dose tested (50).; format: functional, organism-based
Rattus norvegicus [37] = experiment: Compound was tested in vivo for 5-HTP accumulation in limbic system against reserpine-pretreated rats; P=significant partial reduction only at the highest dose tested (50).; format: functional, organism-based
Rattus norvegicus [38] = experiment: Compound was tested in vivo for 5-HTP accumulation in hemispheres (cortex) against reserpine-pretreated rats; P=significant partial reduction only at the highest dose tested (50).; format: functional, organism-based
Rattus norvegicus [39] = experiment: Compound was tested in vivo for 5-HTP accumulation in corpus striatum against reserpine-pretreated rats; P=significant partial reduction only at the highest dose tested (50).; format: functional, organism-based

CCCN(CCC)[C@@H]1CCc2ccc3[nH]cc(C=O)c3c2C1
ED50 (Rattus norvegicus [1]): inactive
ED50 (Rattus norvegicus [2]): inactive
ED50 (Rattus norvegicus [3]): inactive
Ki ([4]; read-out: Ki): 31 nM
Ki (D(3) dopamine receptor [5]): 51 nM
Ki (D(2) dopamine receptor [6]): 17 nM
Ki ([7]; read-out: Ki): 210 nM

CCCN(CCC)[C@@H]1CCc2ccc3[nH]cc(C#N)c3c2C1
Ki (D(3) dopamine receptor [8]): 45 nM
Ki (D(2) dopamine receptor [9]): 22 nM
ED50 (Rattus norvegicus [10]): Weak activity
Ki [11]: 0.8 nM
ED50 (Rattus norvegicus [12]): inactive
Ki ([4]; read-out: Ki): 6.7 nM
ED50 (Rattus norvegicus [13]): inactive
Ki ([7]; read-out: Ki): 26 nM

CCCN(CCC)C1CCc2ccc3[nH]cc(C=O)c3c2C1 (configuration not stated)
ED50 (Rattus norvegicus [14]): 3.34 µmol/kg
ED50 (Rattus norvegicus [3]): inactive
Ki ([4]; read-out: Ki): 173 nM
Ki (D(3) dopamine receptor [5]): 70 nM
Ki ([7]; read-out: Ki): 364 nM

CCCN(CCC)C1CCc2cc(F)c3[nH]cc(C#N)c3c2C1 (configuration not stated)
bioavailability [15]: 8.1%
Tmax [16]: 2 h
AUC (Rattus norvegicus [17]): 48 pM ml-1
AUC (Rattus norvegicus [18]): 238 pM ml-1
Tmax [19]: 33 h
ED50 (Rattus norvegicus [20]): inactive
ED50 (Rattus norvegicus [21]): 0.43 µmol/kg
Ki [11]: 2.3 nM
Ki ([4]; read-out: Ki): 8.6 nM
ED50 (Rattus norvegicus [22]): 0.46 µmol/kg
Ki (D(3) dopamine receptor [5]): 63 nM
ED50 (Rattus norvegicus [23]): 0.55 µmol/kg
Ki (D(2) dopamine receptor [6]): 72 nM
ED50 (Rattus norvegicus [24]): 2.1 µmol/kg
ED50 (Rattus norvegicus [25]): 0.52 µmol/kg
Ki ([7]; read-out: Ki): 121 nM

CCCN(CCC)C1CCc2ccc3[nH]cc(CN(C)C)c3c2C1 (configuration not stated)
ED50 (Rattus norvegicus [26]): inactive
Ki (D(2) dopamine receptor [27]): Not Active
Ki (D(3) dopamine receptor [28]): Not Active
Ki (Rattus norvegicus [29]): inactive
ED50 (Rattus norvegicus [30]): inactive
ED50 (Rattus norvegicus [31]): inactive
Ki [11]: 113 nM
Ki ([4]; cho-k1): Not Active
ED50 (Rattus norvegicus [32]): inactive
Ki (Rattus norvegicus [33]): inactive
Ki ([7]; cho-k1): Not Active

CCCN(CCC)C1CCc2ccc3[nH]cc(C(=O)C(N)=O)c3c2C1 (configuration not stated)
ED50 (Rattus norvegicus [34]): Weak activity
ED50 (Rattus norvegicus [35]): Weak activity
Ki (D(2) dopamine receptor [27]): Not Active
ED50 (Rattus norvegicus [36]): Weak activity
Ki [11]: 24 nM
Ki ([4]; read-out: Ki): 87 nM
ED50 (Rattus norvegicus [37]): Weak activity
ED50 (Rattus norvegicus [38]): Weak activity
ED50 (Rattus norvegicus [39]): Weak activity
Ki ([7]; read-out: Ki): 552 nM
